Measured values as given in the supplement of paper PMC10307832.

Legend:
Assay in all cases: relative viability (nuclei count vs DMSO), 5 days (fraction); higher = more cells survive
[1] = compound: CC(C)C[C@@H](C(=O)N[C@H](C(=O)OC1CCCC1)c1ccccc1)[C@H](O)C(=O)NO [Tosedostat] + O=C(c1cc(Cc2n[nH]c(=O)c3ccccc23)ccc1F)N1CCN(C(=O)C2CC2)CC1 [Olaparib] (partner 8 µM)
In short: (§1)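 Each reported value is a median over duplicate plates. It expresses relative viability: treated-well nuclei count divided by vehicle-well nuclei count. Lung cancer cell lines in 1536-well plates were dosed by pin tool a day after seeding, alone with one drug or with a fixed anchor-drug dose plus five library-drug doses (not always all listed) in √10 steps, and nuclei were counted after 5 days.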

[2] = compound: CC1=NN=C(O1)C2=NN=C(C=C2)N3CCC(CC3)OC4=C(C=CC(=C4)F)Cl + O=C(CCCCCCC(=O)Nc1ccccc1)NO [Vorinostat] (partner 1 µM)
In short: as §1

[3] = compound: CC(C)C[C@@H](C(=O)N[C@H](C(=O)OC1CCCC1)c1ccccc1)[C@H](O)C(=O)NO [Tosedostat] + Nc1nc2[nH]cc(CCc3ccc(C(=O)N[C@@H](CCC(=O)O)C(=O)O)cc3)c2c(=O)[nH]1 [Pemetrexed] (partner 0.2 µM)
In short: as §1

[4] = compound: CC1=NN=C(O1)C2=NN=C(C=C2)N3CCC(CC3)OC4=C(C=CC(=C4)F)Cl + CS(=O)(=O)N1CCN(Cc2cc3nc(-c4cccc5[nH]ncc45)nc(N4CCOCC4)c3s2)CC1 [Pictilisib] (partner 1 µM)
In short: as §1

Cell Line | relative viability ([1]; first compound 0.02 µM) | relative viability ([1]; first compound 0.06325 µM) | relative viability ([1]; first compound 0.2 µM) | relative viability ([1]; first compound 0.6325 µM) | relative viability ([1]; first compound 2 µM) | relative viability ([2]; first compound 0.253 µM) | relative viability ([2]; first compound 0.8 µM) | relative viability ([2]; first compound 2.53 µM) | relative viability ([2]; first compound 8 µM) | relative viability ([3]; first compound 0.02 µM) | relative viability ([3]; first compound 0.06325 µM) | relative viability ([3]; first compound 0.2 µM) | relative viability ([3]; first compound 0.6325 µM) | relative viability ([3]; first compound 2 µM) | relative viability ([4]; first compound 0.253 µM) | relative viability ([4]; first compound 0.8 µM) | relative viability ([4]; first compound 2.53 µM) | relative viability ([4]; first compound 8 µM)
LXF-289 | 1.08 | 0.958 | 1.07 | 0.969 | 0.942 | 0.637 | 0.418 | 0.586 | 0.463 | 0.949 | 0.978 | 1.05 | 0.944 | 1.07 | 0.69 | 0.718 | 0.687 | 0.6
NCI-H23 | 0.323 | 0.238 | 0.294 | 0.252 | 0.191 | 0.565 | 0.359 | 0.558 | 0.514 | 0.745 | 0.702 | 0.691 | 0.725 | 0.361 | 0.466 |  | 0.527 | 0.463
NCI-H322M | 0.746 | 0.713 | 0.67 | 0.532 | 0.635 | 0.812 | 0.87 | 0.948 | 0.799 | 0.61 | 0.628 | 0.596 | 0.666 | 0.652 | 0.511 | 0.486 | 0.482 | 0.451
NCI-H522 | 0.637 | 0.644 | 0.658 | 0.788 | 0.637 | 0.958 | 0.925 | 0.964 | 0.805 | 1.14 | 1.02 | 1.06 | 1.06 | 0.979 |  |  |  | 
NCI-H727 | 0.677 | 0.492 | 0.679 | 0.51 | 0.451 | 1.16 | 1.02 | 1.38 | 1.22 |  |  |  |  |  | 0.475 | 0.4 | 0.498 | 0.403
NCI-H1299 | 1.04 | 0.947 | 0.954 | 0.864 | 0.835 |  |  |  |  |  |  |  |  |  | 0.698 | 0.611 | 0.71 | 0.713
NCI-H1563 |  |  |  |  |  |  |  |  |  | 0.838 | 0.99 | 0.797 | 1.14 | 0.839 | 0.625 | 0.694 | 0.659 | 0.633
NCI-H1648 | 0.799 | 0.644 | 0.764 | 0.875 | 0.587 | 0.376 | 0.417 | 0.5 | 0.513 | 0.656 | 0.736 | 0.99 | 0.966 | 0.532 |  |  |  | 
NCI-H1703 | 0.45 | 0.373 | 0.293 | 0.29 | 0.311 |  |  |  |  |  |  |  |  |  | 0.226 | 0.265 | 0.258 | 0.279
NCI-H1792 | 0.481 | 0.425 | 0.386 | 0.317 | 0.432 |  |  |  |  | 0.92 | 0.884 | 0.838 | 0.935 | 0.658 | 0.205 | 0.314 | 0.375 | 0.411
NCI-H2342 | 0.401 | 0.392 | 0.444 | 0.295 | 0.373 | 0.551 | 0.551 | 0.583 | 0.436 | 0.755 | 0.776 | 0.846 | 0.79 | 0.728 |  |  |  | 
SW 900 | 0.784 | 1.02 | 0.983 | 0.752 | 0.629 |  | 0.287 | 0.418 | 0.28 | 0.513 | 0.527 | 0.527 | 0.474 | 0.486 |  |  |  | 
